# According to EP4268824A1 (Manros Therapeutics, priority 2022, dated 2023):
# Experiment: LogD determined by HPLC
# Type: physicochemical
row,SMILES,chromatographic logD
1,"CC(C)c1cnc2c(NCc3ccccc3)nc(N3CCC(O)C3)nn12 (stereo not drawn) [compound 76, 1-[4-(Benzylamino)-7-isopropyl-imidazo[2,1-f][1,2,4]triazin-2-yl]pyrrolidin-3-ol]",3.16
2,"CSCCNc1nc(NCc2ccccc2)c2ncc(C(C)C)n2n1 [compound 3, N4-Benzyl-7-isopropyl-N2-(2-methylsulfanylethyl)imidazo[2,1-f][1,2,4]triazine-2,4-diamine]",4.13
3,"COCCNc1nc(NCc2ccccc2)c2ncc(C(C)C)n2n1 [compound 1, N4-Benzyl-7-isopropyl-N2-(2-methoxyethyl)imidazo[2,1-f][1,2,4]triazine-2,4-diamine]",3.5
4,"CC(C)c1cnc2c(NCc3cccnc3)nc(NC3CCC[C@@H]3O)nn12 (stereo partly drawn) [compound 66, (1S)-2-[[7-Isopropyl-4-(3-pyridylmethylamino)imidazo[2,1-f][1,2,4]triazin-2-yl]amino]cyclopentanol]",2.36
5,"CC(C)c1cnc2c(NCc3ccccc3)nc(NCCCN(C)C)nn12 [compound 5, N4-Benzyl-N2-[3-(dimethylamino)propyl]-7-isopropyl-imidazo[2,1-f][1,2,4]triazine-2,4-diamine]",2.1
6,"COC1CCC(Nc2nc(NCc3ccccc3)c3ncc(C(C)C)n3n2)CC1 (stereo not drawn) [compound 64, N4-Benzyl-7-isopropyl-N2-(4-methoxycyclohexyl)imidazo[2,1-f][1,2,4]triazine-2,4-diamine]",4.48
7,"CC(C)c1cnc2c(NCc3ccccc3)nc(NC3CCC(F)(F)CC3)nn12 [compound 60, N4-Benzyl-N2-(4,4-difluorocyclohexyl)-7-isopropyl-imidazo[2,1-f][1,2,4]triazine-2,4-diamine]",4.57
8,"CC(C)c1cnc2c(NCc3ccccc3)nc(NC3CCC(O)CC3)nn12 (stereo not drawn) [compound 63, 4-[[4-(Benzylamino)-7-isopropyl-imidazo[2,1-f][1,2,4]triazin-2-yl]amino]cyclohexanol]",2.93
9,"CC(C)c1cnc2c(NCc3ccccc3)nc(NC3CCCCC3)nn12 [compound 59, N4-Benzyl-N2-cyclohexyl-7-isopropyl-imidazo[2,1-f][1,2,4]triazine-2,4-diamine]",5.47
10,"CC(C)c1cnc2c(NCc3ccccc3)nc(NC3CCCC[C@@H]3O)nn12 (stereo in doubt) [compound 62, (1S)-2-[[4-(Benzylamino)-7-isopropyl-imidazo[2,1-f][1,2,4]triazin-2-yl]amino]cyclohexanol]",3.6
11,"CC(C)c1cnc2c(NCc3ccccc3)nc(NC(C)(C)CO)nn12 [compound 18, 2-[[4-(Benzylamino)-7-isopropyl-imidazo[2,1-f][1,2,4]triazin-2-yl]amino]-2-methyl-propan-1-ol]",3.32
12,"CC(C)c1cnc2c(NCc3ccccc3)nc(N3CC4(COC4)C3)nn12 [compound 78, N-Benzyl-7-isopropyl-2-(2-oxa-6-azaspiro[3.3]heptan-6-yl)imidazo[2,1-f][1,2,4]triazin-4-amine]",3.42

# Results, then the compound that gave them:
row,chromatographic logD,SMILES
1,4.42,"COC1CCN(c2nc(NCc3ccccc3)c3ncc(C(C)C)n3n2)C1 (stereo not drawn) [compound 79, N-Benzyl-7-isopropyl-2-(3-methoxypyrrolidin-1-yl)imidazo[2,1-f][1,2,4]triazin-4-amine]"
2,2.3,"CC(C)c1cnc2c(NCc3cccnc3)nc(N3CCC(O)CC3)nn12 [compound 86, 1-[7-Isopropyl-4-(3-pyridylmethylamino)imidazo[2,1-f][1,2,4]triazin-2-yl]piperidin-4-ol]"
3,2.89,"CC(C)c1cnc2c(NCc3ccccc3)nc(Nc3cnn(C)c3)nn12 [compound 110, N4-Benzyl-7-isopropyl-N2-(1-methylpyrazol-4-yl)imidazo[2,1-f][1,2,4]triazine-2,4-diamine]"
4,3.06,"COC1CCN(c2nc(NCc3cccnc3)c3ncc(C(C)C)n3n2)C1 (stereo not drawn) [compound 80, 7-Isopropyl-2-(3-methoxypyrrolidin-1-yl)-N-(3-pyridylmethyl)imidazo[2,1f][1,2,4]triazin-4-amine]"
5,3.5,"CC(C)c1cnc2c(NCc3cccnc3)nc(N3CCSCC3)nn12 [compound 84, 7-Isopropyl-N-(3-pyridylmethyl)-2-thiomorpholino-imidazo[2,1-f][1,2,4]triazin-4-amine]"
6,4.64,"CC(C)c1cnc2c(NCc3ccccc3)nc(NCc3ccc(F)cc3)nn12 [compound 122, N4-Benzyl-N2-[(4-Fluorophenyl)methyl]-7-isopropyl-imidazo[2,1-f][1,2,4]triazine-2,4-diamine]"
7,2.29,"CC(C)c1cnc2c(NCc3cccnc3)nc(N3CCC(O)C3)nn12 (stereo not drawn) [compound 77, 1-[7-Isopropyl-4-(3-pyridylmethylamino)imidazo[2,1-f][1,2,4]triazin-2-yl]pyrrolidin-3-ol]"
8,2.71,"CC(C)c1cnc2c(NCc3ccccc3)nc(N3CCCCC3CCO)nn12 (stereo not drawn) [compound 87, 2-[1-[4-(Benzylamino)-7-isopropyl-imidazo[2,1-f][1,2,4]triazin-2-yl]-2-piperidyl]ethanol]"
9,3.12,"CC(C)c1cnc2c(NCc3ccccc3)nc(NCc3cccnc3)nn12 [compound 124, N4-Benzyl-7-isopropyl-N2-(3-pyridylmethyl)imidazo[2,1-f][1,2,4]triazine-2,4-diamine]"
10,3.15,"COC1CCN(c2nc(NCc3cccnc3)c3ncc(C(C)C)n3n2)CC1 [compound 82, 7-Isopropyl-2-(4-methoxy-1-piperidyl)-N-(3-pyridylmethyl)imidazo[2,1-f][1,2,4]triazin-4-amine]"
11,3.28,"Cc1cc(C)nc(CNc2nc(NCc3ccccc3)c3ncc(C(C)C)n3n2)n1 [compound 127, N4-Benzyl-N2-[(4,6-dimethylpyrimidin-2-yl)methyl]-7-isopropyl-imidazo[2,1-f][1,2,4]triazine-2,4-diamine]"
12,4.64,"CC(C)c1cnc2c(NCc3ccccc3)nc(Nc3ccccc3)nn12 [compound 114, N4-Benzyl-7-isopropyl-N2-phenyl-imidazo[2,1-f][1,2,4]triazine-2,4-diamine]"
13,4.6,"CC(C)c1cnc2c(NCc3ccccc3)nc(NCc3ccccc3)nn12 [compound 121, N2,N4-Dibenzyl-7-isopropyl-imidazo[2,1-f][1,2,4]triazine-2,4-diamine]"
14,5.05,"CC(C)c1cnc2c(NCc3ccccc3)nc(N3CCSCC3)nn12 [compound 83, N-Benzyl-7-isopropyl-2-thiomorpholino-imidazo[2,1-f][1,2,4]triazin-4-amine]"
15,2.16,"CC(C)c1cnc2c(NCc3ccccc3)nc(NCCC3CCCN3C)nn12 (stereo not drawn) [compound 106, N4-Benzyl-7-isopropyl-N2-[2-(1-methylpyrrolidin-2-yl)ethyl]imidazo[2,1-f][1,2,4]triazine-2,4-diamine]"
16,3,Cc1cnc(CNc2nc(NCc3ccccc3)c3ncc(C(C)C)n3n2)cn1 [compound 126]
17,3.12,"CC(C)c1cnc2c(NCc3ccccc3)nc(Nc3nccn3C)nn12 [compound 109, N4-Benzyl-7-isopropyl-N2-(1-methylimidazol-2-yl)imidazo[2,1-f][1,2,4]triazine-2,4-diamine]"
18,3.26,"CC(C)c1cnc2c(NCc3ccccc3)nc(NCc3ccccn3)nn12 [compound 123, N4-Benzyl-7-isopropyl-N2-(2-pyridylmethyl)imidazo[2,1-f][1,2,4]triazine-2,4-diamine]"
